Source: patent publication US20150259371A1, “METHODS AND COMPOUNDS FOR INHIBITING GLYCOSYLTRANSFERASES” (SIMON FRASER UNIVERSITY, priority 2010, published 2015)

These compounds were tested on O-GlcNAc levels in COS-7 cells (assay: Western blot of O-GlcNAc levels (CTD110.6) in treated COS-7 cells). Details: 50 μM, 24 h.
Format: cell-based, African green monkey
Protocol: Cell culture: Cells were grown in an incubator at 37° C. and 5% CO2 atmosphere. Media and serum were purchased from Invitrogen. COS-7 cells were cultured in Dulbecco's modified Eagle's medium (DMEM) with 5% fetal bovine serum (FBS), and were typically 80-100% confluent prior to experimentation. HepG2, SK-N-SH, and EMEG32^−/− cells were cultured in Dulbecco's modified Eagle's medium (DMEM) with 5% fetal bovine serum (FBS), CHO cells in DMEMF-12 with 5% FBS and PC12 cells in DMEM with 5% FBS and 5% horse serum. Prior to experimentation, PC12 cells were plated at a density of 3-4×10^5 cells10 cm plate, which had been pre-treated with 5 μgcm^2 rat tail collagen (BD Biosciences). Cells were differentiated in DMEM containing 1% horse serum, in the presence of 2.5S mouse nerve growth factor (Chemicon) at a final concentration of 25 ng mL^−1, for 4-5 days prior to treatment. Other cell lines were 80-100% confluent prior to treatment. Following treatment with (Ac-)5SGlcNAc, using various conditions, cells were washed gently with PBS, lysed in SDS loading buffer and boiled for 10 minutes. Mouse hybridoma cells (obtained from the Developmental Studies Hybridoma Bank; antibody E7 for (:1-tubulin) were cultured in RPMI40 with 10% FBS. Prior to treatment with Ac-5SGlcNAc, hybridoma cells were cultured for 2 days in RPMI40 with 5% FBS, and during treatment in RPMI40 with no serum. Cells were collected, centrifuged (800 x g, 5 min) and the supernatant removed. Cells were washed with PBS, centrifuged, the pellet resuspended in SDS loading buffer and boiled. The supernatant after centrifugation, which contained the IgG antibody produced by the cells, was used for immunoprecipitation (see below for details).
Westernlectin blots: Samples were run on 10% SDS polyacrylamide gels and transferred onto nitrocellulose membranes (Biorad). Membranes were blocked for 1 h in PBS containing 0.1% Tween-20 (PBS-T) containing 1% (unless otherwise stated) bovine serum albumin (BSA), and probed with the appropriate primary antibody or lectin in 1% BSA in PBS-T overnight at 4° C. Blots were washed for 1 hr with PBS-T, and blocked for a further 30 min with 1% BSA in PBS-T at room temperature. They were then probed with the appropriate horseradish peroxidise (HRP)-conjugated secondary antibodyprobe in 1% BSA in PBS-T at room temperature for 1 h, followed by washing in PBS-T for 1 h. Blots were developed with SuperSignal West Pico Chemiluminescent Substrate (Pierce) and exposed to CL-XPosure film (Pierce). Densitometry was performed using ImageQuant 5.2 (Molecular Dynamics), and fits to the data were made using GRAFIT^41.
Antibodieslectins: O-GlcNAc levels were assessed primarily using CTD110.6 (Covance), but RL2 (Abcam) and HGAC85 (Abcam) were also tested. Actin was probed using JLA20 (Developmental Studies Hybridoma Bank). OGA levels were assessed using a polyclonal anti-OGA antibody which was a kind gift from Dr. Gerald Hart and OGT levels using H-300 (Santa Cruz Biotechnology). nup62 was probed using mAb 414 (Covance). Secondary antibodies employed (HRP-conjugated goat anti-mouse IgM, goat anti-mouse IgG, goat anti-chicken IgY and goat anti-rabbit IgG) were obtained from Santa Cruz Biotechnology. Biotinylated-ConA, PHA-L, SNA and MAA were purchased from EY Laboratories, and biotinylated-GNA from Vector Laboratories. HRP-conjugated streptavidin (Pierce) was used as a probe for the biotinylated lectins.
Analogues (9, 10, 17-41) were tested in COS-7 cells, dosed at a final concentration of 50 μM in DMSO for 24 h. Following treatment, cells were washed with PBS, harvested into SDS-PAGE loading buffer and analyzed by western blot using standard procedures; blots were probed with the anti-O-GlcNAc antibody (CTD 110.6).

| Compound | effect on O-GlcNAc levels at single dose | extent of decrease of O-GlcNAc levels relative to parent compound 9 |
| --- | --- | --- |
| CCC(=O)NC1C(OC(C)=O)SC(COC(C)=O)C(OC(C)=O)C1OC(C)=O [Compound 17, N-proprionyl-1,3,4,6-tetra-O-acetyl-α-D-5-thio-glucosamine] | decreased O-GlcNAc levels in cells | – |
| CCCC(=O)NC1C(OC(C)=O)SC(COC(C)=O)C(OC(C)=O)C1OC(C)=O [Compound 19, N-(n-butyryl)-1,3,4,6-tetra-O-acetyl-a-D-5-thio-glucosamine] | decreased O-GlcNAc levels in cells | – |
| CC(=O)OCC1SC(OC(C)=O)C(NC(=O)C(C)C)C(OC(C)=O)C1OC(C)=O [Compound 21, N-(i-butyryl)-1,3,4,6-tetra-O-acetyl-a-D-5-thio-glucosamine] | decreased O-GlcNAc levels in cells | – |
| CCCCC(=O)NC1C(OC(C)=O)SC(COC(C)=O)C(OC(C)=O)C1OC(C)=O [Compound 23, N-(n-valeryl)-1,3,4,6-tetra-O-acetyl-α-D-5-thio-glucosamine] | decreased O-GlcNAc levels in cells | – |
| CC(=O)OCC1SC(OC(C)=O)C(NC(=O)CC(C)C)C(OC(C)=O)C1OC(C)=O (stereo not drawn) [Compound 25] | decreased O-GlcNAc levels in cells | – |
| CCCCCC(=O)NC1C(OC(C)=O)SC(COC(C)=O)C(OC(C)=O)C1OC(C)=O [Compound 27, N-hexonoyl-1,3,4,6-tetra-O-acetyl-a-D-5-thio-glucosamine] | decreased O-GlcNAc levels in cells | comparable extent to the parent compound |
| CC(=O)OC[C@H]1S[C@H](OC(C)=O)[C@H](N)[C@@H](OC(C)=O)[C@@H]1OC(C)=O.O=S(=O)(O)O [Compound 31′, 1,3,4,6-tetra-O-acetyl-a-D-5-thio-glucosamine sulphuric acid salt] | decreased O-GlcNAc levels in cells | – |
| CC(=O)OCC1SC(OC(C)=O)C(NC(=O)CC2CCCCC2)C(OC(C)=O)C1OC(C)=O [Compound 33, N-(2-Cyclohexylacetyl)-1,3,4,6-tetra-O-acetyl-a-D-5-thio-glucosamine] | decreased O-GlcNAc levels in cells | – |
| O=C(CC1CCCCC1)NC1C(O)SC(CO)C(O)C1O [Compound 34, N-(2-cyclohexylacetyl)-a-D-5-thio-glucosamine] | decreased O-GlcNAc levels in cells | – |
| CC(=O)OCC1SC(OC(C)=O)C(NC(=O)Cc2cccc3ccccc23)C(OC(C)=O)C1OC(C)=O [Compound 35, N-(1-naphthylacetyl)-1,3,4,6-tetra-O-acetyl-α-D-5-thio-glucosamine] | decreased O-GlcNAc levels in cells | – |
| O=C(Cc1cccc2ccccc12)NC1C(O)SC(CO)C(O)C1O [Compound 36, N-(1-Naphthylacetyl)-α-D-5-thio-glucosamine] | decreased O-GlcNAc levels in cells | – |
| CC[C@H](C)CC(=O)NC1C(OC(C)=O)SC(COC(C)=O)C(OC(C)=O)C1OC(C)=O (stereo partly drawn) [Compound 37, N-[(S)-methylvaleryl]-1,3,4,6-tetra-O-acetyl-α-D-5-thio-glucosamine] | decreased O-GlcNAc levels in cells | comparable extent to the parent compound |
| CCC[C@H](C)C(=O)N[C@@H]1[C@@H](O)[C@H](O)[C@@H](CO)S[C@@H]1O [Compound 38, N-[(S)-2-methylvaleryl]-a-D-5-thio-glucosamine] | decreased O-GlcNAc levels in cells | comparable extent to the parent compound |

Same assay, conditions: 24 hours

| Compound | effect on O-GlcNAc levels, dose response |
| --- | --- |
| CC(=O)NC1C(O)SC(CO)C(O)C1O [Compound 10, N-acetyl-α-D-5-thio-glucosamine] | decreased O-GlcNAc levels in a dose-dependent fashion |

Same assay, conditions: Chlorocebus sabaeus, 24 h, densitometry of western blot, read-out: EC50 for reduction of O-GlcNAc levels

| Compound | EC50 [µM] |
| --- | --- |
| CC(=O)NC1C(O)SC(CO)C(O)C1O [Compound 10, N-acetyl-α-D-5-thio-glucosamine] | 700 |

The compounds below were run against T1, OGA (Homo sapiens, UniProt O60502) (assay: OGA kinetics, Michaelis-Menten hydrolysis of pMP glycosides). Details: 37° C.
T1 construct: made in house
T1 sequence (O60502 1-916): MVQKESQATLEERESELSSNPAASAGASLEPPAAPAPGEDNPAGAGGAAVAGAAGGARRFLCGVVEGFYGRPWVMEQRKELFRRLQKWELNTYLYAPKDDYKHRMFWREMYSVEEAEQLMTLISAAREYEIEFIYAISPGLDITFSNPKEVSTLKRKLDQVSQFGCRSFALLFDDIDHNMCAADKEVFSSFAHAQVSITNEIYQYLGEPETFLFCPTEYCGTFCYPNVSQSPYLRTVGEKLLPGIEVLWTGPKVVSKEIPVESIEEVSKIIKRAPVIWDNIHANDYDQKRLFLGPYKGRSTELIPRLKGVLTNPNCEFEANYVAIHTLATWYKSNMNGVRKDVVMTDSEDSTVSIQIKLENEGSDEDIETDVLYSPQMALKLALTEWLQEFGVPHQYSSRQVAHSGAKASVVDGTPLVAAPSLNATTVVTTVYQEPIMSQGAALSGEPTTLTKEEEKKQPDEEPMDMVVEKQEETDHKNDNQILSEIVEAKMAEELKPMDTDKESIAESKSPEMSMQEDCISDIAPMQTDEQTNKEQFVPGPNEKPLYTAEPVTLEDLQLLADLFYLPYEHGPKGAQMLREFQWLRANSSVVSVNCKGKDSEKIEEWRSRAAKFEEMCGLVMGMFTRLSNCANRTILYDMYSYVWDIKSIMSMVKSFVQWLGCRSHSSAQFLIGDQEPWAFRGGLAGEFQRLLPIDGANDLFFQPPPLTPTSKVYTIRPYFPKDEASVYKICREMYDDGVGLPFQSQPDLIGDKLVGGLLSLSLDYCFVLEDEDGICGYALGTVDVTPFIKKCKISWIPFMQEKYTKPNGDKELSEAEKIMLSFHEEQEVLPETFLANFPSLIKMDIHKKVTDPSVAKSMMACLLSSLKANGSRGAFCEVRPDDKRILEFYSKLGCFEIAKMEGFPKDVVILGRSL
Format: biochemical
Protocol: OGA kinetics: Synthesis and characterization of para-methoxyphenyl-5SGlcNAc is described in Example II. Kinetics were performed at 37° C. in PBS, pH 7.4 in a total volume of […]. Substrate concentrations of 25 μM to 1.5 mM were used for pMP-GlcNAc and 25 to 800 μM for pMP-5SGlcNAc. OGA (which was over-expressed and purified as described in Ref. ^42) was used at a concentration of 1 μM for pMP-GlcNAc and 3.6 μM for pMP-5SGlcNAc. Rates were monitored at a wavelength of 296 nm over the course of 10-20 min. Data were fit to the Michaelis-Menten equation in GRAFIT^41 and the kcat and KM values determined.

| kcat for OGA hydrolysis | Km [µM] | Compound |
| --- | --- | --- |
| 0.28 nmol s^−1 me | – | COc1ccc(O[C@H]2S[C@H](CO)[C@@H](O)[C@H](O)[C@H]2NC(C)=O)cc1 [Compound 14, para-Methoxyphenyl 2-acetamido-2-deoxy-5-thio-α-D-glucopyranoside] |
| 14.3 nmol/s/mg | 350 | COc1ccc(O[C@@H]2O[C@H](CO)[C@@H](O)[C@H](O)[C@H]2NC(C)=O)cc1 [pMP-GlcNAc, para-methoxyphenyl-GlcNAc, reference compound] |

Same assay, conditions: human OGA

| Vmax/E0KM for OGA hydrolysis [μmol s^−1 mg^−1 M^−1] | fold less efficiently processed by OGA than pMP-GlcNAc [fold] | Compound |
| --- | --- | --- |
| 8.1 | 5 | COc1ccc(O[C@H]2S[C@H](CO)[C@@H](O)[C@H](O)[C@H]2NC(C)=O)cc1 [Compound 14, para-Methoxyphenyl 2-acetamido-2-deoxy-5-thio-α-D-glucopyranoside] |
| 40.7 | – | COc1ccc(O[C@@H]2O[C@H](CO)[C@@H](O)[C@H](O)[C@H]2NC(C)=O)cc1 [pMP-GlcNAc, para-methoxyphenyl-GlcNAc, reference compound] |
